In patent publication US20250302981A1, “NOVEL USE OF ANTICANCER AGENT PRODRUG CONJUGATE” (UNIVERSITY OF ULSAN FOUNDATION FOR INDUSTRY COOPERATION, priority 2020, published 2025):
*1 amine or outer side, *2 acyl side, *3 side chain or, on linkers, in order; H or OH if unused. Where a SMILES comes first, the peptide text is derived from it. [ ]: non-standard residue; d: D form. The star is where a group is joined. Doxorubicin(3'-N) = COc1cccc2c1C(=O)c1c(O)c3c(c(O)c1C2=O)C[C@@](O)(C(=O)CO)C[C@@H]3O[C@H]1C[C@H](N*)[C@H](O)[C@H](C)O1; Hexanoyl(6-maleimido) = O=C1C=CC(=O)N1CCCCCC(=O)*; PABC = O=C(OCc1ccc(N[*:1])cc1)[*:2]

Assays:
[1] = Pharmacokinetic analysis in cynomolgus monkeys; format: in vivo; conditions: intravenous, equivalent to 1 mg/kg doxorubicin
Method: Blood samples were collected at 15, 30, 45, 60, and 90 min intervals, and then again at 2, 3, 4, 6, 8, 12, 24, 48, 72, 96, 120, 144, and 168 h. The blood samples were stabilized with sodium citrate and then cryocentrifuged at 2000×g for 15 min to obtain plasma. 200 μl of the plasma sample was added to a 96-well black microplate and the fluorescence of doxorubicin was measured at 485/590 nm. The reference was fresh plasma and the fluorescence was measured in the same manner.

[2] = Pharmacokinetic analysis in rats; format: in vivo, Sprague-Dawley rats; conditions: equivalent to 1 mg/kg doxorubicin; for half-life: Sprague-Dawley, rat, plasma, iv, 1 mg/kg
Method: Blood samples were collected at 5, 15, 30, 60, and 90 min intervals and then again at 2, 4, 8, 12, 24, 48, 72, 96, and 144 h. The blood samples were stabilized with sodium citrate and then cryocentrifuged at 2000×g for 15 min to obtain plasma. 200 μl of the plasma sample was placed in a 96-well black microplate and the fluorescence of doxorubicin was measured at 485/590 nm. The reference was fresh plasma and the fluorescence was measured in the same manner.

[3] = system: tumor cell lines with wild-type KRAS genotype; experiment: Concentration-dependent cytotoxicity by MTT analysis; format: cell-based; conditions: wild-type KRAS cells, concentrations up to 100 μM
[4] = target: T1, human serum albumin (HSA) (Homo sapiens, UniProt P02768); experiment: Conjugate binding with human serum albumin, HPLC analysis
T1 construct: purchased Sigma-Aldrich
Method: The maleimide-KGDEVD-PABC-doxorubicin synthesized in Example 1 was then added to a concentration of 100 μM and incubated at room temperature. The samples were analyzed by analytical HPLC (FIG. 1). (KGDEVD corresponds to SEQ ID NO: 32)

[5] = system: cancer cell groups with PTEN protein loss genotype (H1299, MDA-MB436); experiment: Tumor growth in mice inoculated with PTEN protein loss tumor cells; format: in vivo, C3H/HeN mice; conditions: intravenous every 3 days, equivalent to 1, 5 and 10 mg/kg doxorubicin, 1 month; compared to the control group
Method: The maleimide-KGDEVD-PABC-doxorubicin was administered intravenously every 3 days at concentrations equivalent to 1, 5, and 10 mg/kg of doxorubicin, respectively, and observed for 1 month.

[6] = system: tumor cell lines with wild-type PTEN protein genotype; experiment: Concentration-dependent cytotoxicity by MTT analysis; format: cell-based; conditions: PTEN wild-type cells, up to 100 μM
[7] = system: tumor cell lines with KRAS variant genotype; experiment: as above; format: cell-based; conditions: KRAS variant cells
[8] = system: cell lines with KRAS variant genotype (Mia-paca2, AsPC1, MDA-MB231, CT26, HCT116, H2122, A549); experiment: Tumor growth in mice inoculated with wild-type KRAS or KRAS variant tumor cells; format: in vivo, C3H/HeN mice; conditions: intravenous every 3 days, equivalent to 1, 5 and 10 mg/kg doxorubicin, 1 month
Method: The maleimide-KGDEVD-PABC-doxorubicin was administered intravenously every 3 days at doses equivalent to 1, 5, and 10 mg/kg of doxorubicin, respectively, and then observed for 1 month. […] Therefore, the prodrug conjugate according to one embodiment of the present invention is not expected to have significant side effects.

[9] = system: tumor cell lines with PTEN protein loss genotype; experiment: Concentration-dependent cytotoxicity by MTT analysis; format: cell-based; conditions: PTEN protein loss cells, up to 100 μM
[10] = target: T2, serum albumin in human blood (human plasma sample) (Homo sapiens, UniProt P02768); experiment: Conjugate binding with serum albumin in human plasma, HPLC analysis
T2 construct: from tissue; host or cells: human plasma
Method: The conjugation binding of maleimide-KGDEVD-PABC-doxorubicin with HSA was completed in 3 min. However, when plasma was pre-incubated with 4-maleimidobutyric acid which has a thiol-bound maleimide functional group, prior to incubation with maleimide-KGDEVD-PABC-doxorubicin no, binding of maleimide-KGDEVD-PABC-doxorubicin to plasma was observed even after 1 h as in the previous experiment conducted with serum.

[11] = system: tumor cells having KRAS variant genotype (Mia-paca2); experiment: Tumor inhibition compared with Aldoxorubicin in mice implanted with KRAS variant tumor cells; format: in vivo, C3H/HeN mice; conditions: Mia-paca2, intravenous every 3 days, equivalent to 5 mg/kg doxorubicin, 1 month
Text: Using C3H/HeN mice implanted with tumor cells having KRAS variant genotype (Mia-paca2), the tumor inhibition effect of the maleimide-KGDEVD-PABC-doxorubicin (MPD1) synthesized in Example 1 of the present invention, the maleimide-KGDVED-PABC-doxorubicin (EMC-KGDVED-DOX) with different peptide sequence, and Aldoxorubicin, a conventional doxorubicin-based anticancer drug which is linked to a maleimide so that it binds to albumin in plasma upon administration and increases half-life, were compared (FIGS. 19 and 20).

[12] = target: HSA-Maleimide-KGDVED-PABC-doxorubicin, P02768
[13] = target: HSA-maleimide-KGDEVD-PABC-doxorubicin, P02768

Molecule: COc1cccc2c1C(=O)c1c(O)c3c(c(O)c1C2=O)C[C@@](O)(C(=O)CO)C[C@@H]3O[C@H]1C[C@H](NC(=O)OCc2ccc(NC(=O)[C@H](CC(=O)O)NC(=O)[C@@H](NC(=O)[C@H](CCC(=O)O)NC(=O)[C@H](CC(=O)O)NC(=O)CNC(=O)[C@H](CCCCN)NC(C)=O)C(C)C)cc2)[C@H](O)[C@H](C)O1 [AcKGDEVD-PABC-doxorubicin, Ac-Lys-Gly-Asp-Glu-Val-Asp-PABC-DOX, reference compound] (Ac-KGDEVD[PABC]-{Doxorubicin(3'-N)})
- time until plasma concentration decreased below the detection limit of 5 ng/ml [1]: ≤ 6 h

Molecule: COc1cccc2c1C(=O)c1c(O)c3c(c(O)c1C2=O)C[C@@](O)(C(=O)CO)C[C@@H]3O[C@H]1C[C@H](NC(=O)OCc2ccc(NC(=O)[C@H](CC(=O)O)NC(=O)[C@@H](NC(=O)[C@H](CCC(=O)O)NC(=O)[C@H](CC(=O)O)NC(=O)CNC(=O)[C@H](CCCCNC(=O)CCCCCN3C(=O)C=CC3=O)NC(C)=O)C(C)C)cc2)[C@H](O)[C@H](C)O1 [maleimide-KGDEVD-PABC-doxorubicin, Ac-Lys(EMC)-Gly-Asp-Glu-Val-Asp-PABC-DOX] (Ac-K(Hexanoyl(6-maleimido))GDEVD[PABC]-{Doxorubicin(3'-N)})
- half-life ([2]; read-out: half-life): > 19 h
- half-life ([2]; read-out: terminal half-life): 0.5 h
- time remained active in plasma after administration ([2]; intravenous): 6 days
- time until plasma concentrations decreased below the detection limit of 5 ng/ml ([2]; intravenous): ≤ 4 h
- IC50 [3]: generally higher
- half-life ([1]; cynomolgus monkey, in vivo, read-out: terminal half-life): > 106 h
- time detectable in plasma after administration [1]: 7 days
- time to complete conjugate binding with HSA ([4]; HSA 700 μM in PBS, conjugate 100 μM, room temperature): 3 min
- binding to HSA pre-incubated with 4-maleimidobutyric acid ([4]; HSA pre-incubated with 4-maleimidobutyric acid, after 1 h): no binding
- tumor inhibition [5]: greater tumor inhibition
- IC50 values based on doxorubicin [6]: lower IC50 values
- IC50 [7]: lower
- tumor growth inhibition ([8]; KRAS variant versus wild-type KRAS tumors): better tumor growth inhibition than those with wild-type KRAS genotype
- effect on body weight of the experimental animals ([8]; wild-type KRAS and KRAS variant tumors): none of the drugs had a significant effect on the body weight
- IC50 values based on doxorubicin [9]: higher IC50 values
- time to complete conjugation binding with HSA in human plasma ([10]; human plasma, conjugate 100 μM, room temperature): 3 min
- binding to plasma pre-incubated with 4-maleimidobutyric acid ([10]; plasma pre-incubated with 4-maleimidobutyric acid, after 1 h): no, binding
- in vivo anticancer effects (tumor inhibition) [11]: anticancer effects similar to those of Aldoxorubicin

B1: recombinant human caspase-3 (protein)
chain: SGISLDNSYKMDYPEMGLCIIINNKNFHKSTGMTSRSGTDVDAANLRETFRNLKYEVRNKNDLTREEIVELMRDVSKEDHSKRSSFVCVLLSHGEEGIIFGTNGPVDLKKITNFFRGDRCRSLTGKPKLFIIQACRGTELDCGIETDSGVDDDMACHKIPVEADFLYAYSTAPGYYSWRNSKDGSWFIQSLCAMLKQYADKLEFMHILTRVNRKVATEFESFSFDATFHAKKQIPCIVSMLTKELYFYH
- cleavage and release of doxorubicin, HPLC [12]: no cleavage was observed for the HSA-Maleimide-KGDVED-PABC-doxorubicin conjugate with a different peptide amino acid sequence
- cleavage and release of doxorubicin, HPLC [13]: Doxorubicin was cleaved and isolated from the HSA-maleimide-KGDEVD-PABC-doxorubicin conjugate within 1 h
